Measured values taken from PubChem BioAssay (NCI).
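These data come from cells grown in 96-well plates and exposed to compound for 48 hours at five concentrations. The concentration for 50% growth inhibition is given as GI50. At the TGI there is no net growth.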

How the values were obtained:
Test in all cases: growth of human tumour cells (NCI), 48 h
NCI-H226 lung = system: NCI-H226 lung
SK-OV-3 ovarian = system: SK-OV-3 ovarian
HL-60(TB) leukemia = system: HL-60(TB) leukemia
CCRF-CEM leukemia = system: CCRF-CEM leukemia
U251 CNS = system: U251 CNS
M14 melanoma = system: M14 melanoma
UACC-257 melanoma = system: UACC-257 melanoma
SF-295 CNS = system: SF-295 CNS
OVCAR-4 ovarian = system: OVCAR-4 ovarian
CAKI-1 renal = system: CAKI-1 renal

Structure (SMILES)	GI50 (NCI-H226 lung) [µM]	TGI (NCI-H226 lung) [µM]	GI50 (SK-OV-3 ovarian) [µM]	TGI (SK-OV-3 ovarian) [µM]	GI50 (HL-60(TB) leukemia) [µM]	TGI (HL-60(TB) leukemia) [µM]	GI50 (CCRF-CEM leukemia) [µM]	TGI (CCRF-CEM leukemia) [µM]	GI50 (U251 CNS) [µM]	TGI (U251 CNS) [µM]	GI50 (M14 melanoma) [µM]	TGI (M14 melanoma) [µM]	GI50 (UACC-257 melanoma) [µM]	TGI (UACC-257 melanoma) [µM]	GI50 (SF-295 CNS) [µM]	TGI (SF-295 CNS) [µM]	GI50 (OVCAR-4 ovarian) [µM]	TGI (OVCAR-4 ovarian) [µM]	GI50 (CAKI-1 renal) [µM]	TGI (CAKI-1 renal) [µM]
OCCCCCNCc1cc2cc3c(cc2c2cc(OCc4ccccc4)ccc12)OCO3	1.85	3.41	3.02	7.94	1.52	3.65	2.52	6.11	1.65	3.01	1.94	3.45	1.63	3.15	1.59	3	1.87	3.59	1.77	3.74
Clc1ccc(C(c2ccc(Cl)cc2)c2ccccn2)cc1	–	31.9	–	86.5	–	55.8	–	48.1	–	30.9	–	38	–	37.9	–	43.4	–	70.2	–	56.8
Cn1cnc([N+](=O)[O-])c1Sc1nc2ccccc2[nH]1	–	78.1	–	61.8	–	> 100	–	90.1	–	74.5	–	56.3	–	34.4	–	> 100	–	> 100	–	17.2
COc1cc(OC)cc(-c2cc(=O)c3c(OC)c(OC)c(OC)c(OC)c3o2)c1	–	> 100	–	54.2	–	> 100	–	> 100	–	> 100	–	> 100	–	> 100	–	69.8	–	> 100	–	> 100
COc1cc2c3c(n(C)c(=O)c2cc1OC)-c1cc2c(cc1/C3=C\CCN)OCO2	0.517	2.42	3.88	> 62.8	0.236	1.52	< 0.0104	–	0.16	22.8	0.22	4.82	1.03	16.9	< 0.0239	8.84	0.792	6.54	0.112	3.02
CC(=O)/C(=C\c1cccc([N+](=O)[O-])c1)C(=O)Nc1ccccc1C	–	> 100	–	> 100	–	57.9	–	> 100	–	> 100	–	> 100	–	> 100	–	> 100	–	> 100	–	> 100
O=c1c2sccc2n(CC2COc3ccccc3O2)c(=O)n1O (stereo unspecified)	24.6	83.6	32.8	> 100	16.9	44.7	7	94.4	7.52	> 100	21.2	> 100	22.4	> 100	9.51	> 100	13.9	98.7	20.1	97.3
O=C1OC(O)[C@@H]2[C@H]1[C@H]1CC[C@@H]2O1 (stereo partly specified)	> 79.4	> 100	> 100	> 100	> 42.3	> 100	> 100	> 100	> 100	> 100	84.5	> 100	> 87	> 100	> 100	> 100	> 100	> 100	71.9	> 100
CC(C)[C@H]1COC(=O)N1[C@@H]1C(=O)N([C@@H](CCC(=O)N2CCN(C3CCCC3)CC2)C(=O)N[C@@H]2CCCc3ccccc32)[C@@H]1/C=C/c1cccc(Br)c1	3.49	15.6	2.82	8.21	1.91	4.9	2.91	8.4	1.9	3.51	1.8	3.46	1.63	3.44	2.15	5.05	2.79	15	1.88	4.01
Cn1c2ccccc2c2cc(-c3ccccc3)c3c(c21)C(=O)c1ccccc1C3=O	–	84	–	> 100	–	35.9	–	33	–	–	–	33.4	–	42.9	–	74.4	–	34.3	–	> 100
CN1CCN(CCCn2c(=O)c3sc4ncccc4c3n3nnc(-c4ccccc4)c23)CC1	7.4	15.3	8.88	15.9	0.795	1.73	1.55	5.29	5.21	11.2	2.13	7.38	2.27	7.62	5.63	12.4	7.27	14	6.16	13
CCCCCCCCC/C=C1\CCC(CN2CCOCC2)C1=O (stereo unspecified)	–	15.3	–	31.2	–	4.38	–	6.56	–	3.73	–	9.41	–	10.7	–	20	–	12	–	6.38
COc1cc(NCc2ccc3oc(=O)c(-c4ccccc4)nc3c2)cc(OC)c1OC	–	> 10	–	> 10	–	> 10	–	> 10	–	> 10	–	> 10	–	> 10	–	> 10	–	> 10	–	> 10
CCCCCCCC(=O)SCC/C=C/[C@@H]1CC(=O)NCc2cc(ccn2)C2=N[C@@](C)(CS2)C(=O)N[C@@H](C(C)C)C(=O)O1	0.0818	1.62	0.00841	0.0716	0.0242	> 33.3	0.0231	> 33.3	0.0291	0.309	0.0111	> 13.3	–	–	0.0166	0.147	0.0535	> 33.3	0.104	0.665
Cc1cc(/C=C/c2ccc3cc(N(C)C)ccc3[n+]2C)c(C)n1-c1ccccc1	0.117	0.74	0.142	1	0.0939	0.352	0.218	2.6	0.129	1.16	0.3	1.25	0.184	0.951	0.11	0.409	0.0723	5.23	0.722	2.24
